{"source": "paper PMC5290737", "about": "“Surface mediated cooperative interactions of drugs enhance mechanical forces for antibiotic action” (Scientific Reports, 2017)", "key": {"[1]": {"test_system": "vancomycin resistant E. faecalis (VRE)", "details": "absence of polysorbate-80; ref. 2 (Van), ref. 5 (Rist, CE), ref. 9 (Ori), supplementary references; cited from earlier work"}, "[2]": {"target": "vancomycin-resistant receptor (VRR)", "details": "ref. 3 (Van), ref. 5 (Rist), ref. 4 (CE), supplementary references, read-out: Ksurf SPR; cited from earlier work"}, "[3]": {"test_system": "vancomycin susceptible E. faecalis (VSE)", "details": "absence of polysorbate-80; ref. 9 (Van, CE, Ori), ref. 10 (Rist), supplementary references; cited from earlier work"}, "[4]": {"target": "VRR in solution", "details": "ref. 1 (Van), ref. 6 (Rist), ref. 8 (CE), ref. 2 (Ori), supplementary references, read-out: Ksurf Solution; cited from earlier work"}, "[5]": {"test_system": "vancomycin-resistant receptor (VRR)", "assay": "Cantilever surface stress assay, antibiotic binding to surface-bound VRR", "from_the_text": "(§1) To probe different pathways of signal-transduction central to the efficacy of recognition mechanisms and therapeutic agents, we used cantilever force-based technology. Because of its nanometre strain sensitivity, this technology can directly measure the smallest changes in mechanical strain caused by specific antibiotic binding. The principles of force transduction and measurements are well established[18][19][20] and many studies focused on cantilever sensors have been published. Unlike conventional methods such as 1H–NMR spectroscopy, enzyme-linked immunosorbent assays (ELISA)[29] or surface plasmon resonance (SPR)[30] which measure optical signatures of chemical binding, cantilever technology has the capacity to resolve forces at the level of individual hydrogen bonds, making it uniquely suited to provide important insight into force transduction mechanisms, such as cell wall strain in response to antibiotic binding. Moreover, in contrast to direct current or low-frequency signals, which cannot probe beyond electrical double layers formed by screening salts, mechanical signaling is sensitive to ligands even when they are located at distance of ~1 nm or more from the sensor surface (Fig. 1d). Measurements were performed using cantilevers functionalized with self-assembled monolayers (SAM) of VSR, VRR or reference polyethylene glycol (PEG) (see methods & materials, Supplementary Information). The specificity of mechanical signaling was achieved by performing measurements in differential mode, where the bending response of the reference PEG-coated cantilevers, (known to reduce nonspecific drug adsorption[8][14][34]) was subtracted from VSR- and VRR-coated cantilever signals (see cantilever measurement procedure, method section).\n(§2) Thus far, we have discussed the impact of near-membrane layer on the association kinetics, mechanical force transduction, specificity of molecular recognition and microbial susceptibility. To gain mechanistic insight (Fig. 7a,b), we averaged measurements for each drug-target interaction over four separate chips and the results are summarized in Fig. 7c,d. […] The mechanical signaling response follows an s-shaped curve undergoing its steepest rise at N ~1/Ksurf before reaching a plateau when the binding sites are fully occupied (Fig. 7c,d). To calculate Ksurf, we used equation (2)[14], based on the conventional Hill adsorption model.\n(§3) Here, Ksurf is raised to the power n to ensure that it maintains the dimension of concentration as n varies. Setting n = 1 yields the Langmuir isotherm where the reactions occur independently, while n > 1 corresponds to positive co-operative polyvalent interactions and n < 1 is a measure of negative co-operativity. In Fig. 7c,d, we find that the mechanical response at VSR levels off at 50 μM concentration for all antibiotics. In contrast, for the drug-resistant VRR a concentration of more than 1000 μM of Van, Rist or CE was required to reach indistinguishable maximum signals. The outcome of the fit using three parameters (n, Ksurf and σmax) is summarized in Supplementary Fig. 2. The calculated Ksurf for Ori binding to VSR is 40 ± 10 nM, which is 25 times stronger than for Van where Ksurf is 1.0 ± 0.3 μM. The Ksurf of Ori against VRR is 70 ± 10 nM, an astonishing 11,000 times stronger than for Van where Ksurf is 800 ± 300 μM. As a further measurement control and to confirm the accuracy of surface binding affinity, we used a commercially available SPR method (Fig. 7e,f and Supplementary SPR sensor chip functionalization procedure), where the detection of ligands is at a single planar metal surface.\n(§4) The modified cantilever chip was mounted in a sealed liquid cell. The alignment of each light source onto the free end of each cantilever was confirmed by heating liquid chamber to 1 °C rise. […]"}, "[6]": {"test_system": "methicillin-susceptible Staphylococcus aureus (MSSA) ATCC 29213", "assay": "MIC by broth microdilution (CLSI M07-A8), with PS80", "assay_type": "cell-based", "details": "MSSA ATCC 29213, with PS80", "method": "Determination of MIC values to methicillin-susceptible Staphylococcus aureus (MSSA).\nMinimum Inhibitory Concentration (MIC) is defined as the lowest concentration of antibacterial agent required to inhibit growth of a microorganism after incubation. The antibiotics vancomycin (Van) and ristomycin (Rist) were obtained from Sigma-Aldrich while chloroeremomycin (CE) and oritavancin (Ori) were obtained from the Medicine Company Inc., U.S.A. To prepare antibiotic stock solutions for MICs assay, 5 mg/ml of each drug was dissolved in water containing an appropriate volume of 0.002% polysorbate-80 or PS80 obtained from Sigma-Aldrich which corresponds to 20 µM to eliminate nonspecific interactions of drugs to surfaces particularly for Ori which is known to bind to glass and plastics13. Microbiological broth with PS80 maintained at 20 µM was used in the drug dilution steps until the required final (assay) concentration. Diluted concentrations of each drug were assayed by adding an inoculum of methicillin-susceptible Staphylococcus aureus (MSSA) ATCC 29213 cells and the MIC determined by broth microdilution according to Clinical Laboratory Standards Institute (CLSI) methodology M07-A8 (CLSI 2009a)14. The results as shown in Supplementary Table S2 for each antibiotic against clinical isolate of MSSA ATCC 29213 strains conducted in the presence of […]\nPS80 are within the quality control ranges defined in the guideline15. […]"}, "[7]": {"target": "vancomycin-susceptible receptor (VSR)", "assay": "Cantilever surface stress assay, antibiotic binding to surface-bound VSR", "from_the_text": "as §1, §2, §3, §4"}, "[8]": {"details": "ligand-ligand dissociation constant in solution; ref. 2 (Van, CE, Ori), ref. 5 (Rist), supplementary references; read-out: K1 Solution (complex aggregation constant); cited from earlier work"}, "[9]": {"target": "vancomycin-susceptible receptor (VSR)", "details": "ref. 4 (Rist), ref. 3 (CE), supplementary references, read-out: Ksurf SPR; cited from earlier work"}, "[10]": {"target": "VSR (Ac-VSR) in solution", "details": "VSR in solution; ref. 1 (Van, Rist), ref. 7 (CE), ref. 2 (Ori), supplementary references; read-out: Ksurf Solution; cited from earlier work"}}, "note": "Where two headings read alike, the source gives them in different places."}
{"substance": "ristomycin", "values": [{"measurement": "MIC VRE", "setting": "[1]", "result": 512, "unit": "µg/mL"}, {"measurement": "Kd", "setting": "[2]", "result": 6.7, "unit": "µM"}, {"measurement": "MIC VSE", "setting": "[3]", "result": 12.5, "unit": "µg/mL"}, {"measurement": "Kd", "setting": "[4]", "result": 3850, "unit": "µM"}, {"measurement": "compressive surface stress", "setting": "[5]; 10 μM antibiotic against VRR", "result": "~ 2 mNm^−1"}, {"measurement": "concentration required to reach indistinguishable maximum signals", "setting": "[5]; VRR", "result": "more than 1000 μM"}, {"measurement": "Kd", "setting": "[5]; VRR on cantilever, fit of equation (2), pH 7.4 sodium phosphate buffer, read-out: Ksurf Cantilever (surface equilibrium dissociation constant)", "result": "32 ± 17", "unit": "µM"}, {"measurement": "maximum stress data, Mean", "setting": "[5]; VRR, 4 chips, one-way ANOVA table S4", "result": 7.5}, {"measurement": "MIC", "setting": "[6]", "result": 8.0, "unit": "µg/mL"}, {"measurement": "MIC", "setting": "[6]; converted from mg/l", "result": 3.69, "unit": "µM"}, {"measurement": "Kd", "setting": "[7]; VSR on cantilever, fit of equation (2), pH 7.4 sodium phosphate buffer, read-out: Ksurf Cantilever (surface equilibrium dissociation constant)", "result": "0.9 ± 0.5", "unit": "µM"}, {"measurement": "maximum stress data, Mean", "setting": "[7]; VSR, 4 chips, one-way ANOVA table S5", "result": 34.5}, {"measurement": "Mean difference of stress, VSR versus VRR", "setting": "[7]; independent samples t-test, 4 chips, table S6", "result": 27.0}, {"measurement": "Kd", "setting": "[8]", "result": 3000, "unit": "µM"}, {"measurement": "Kd", "setting": "[9]", "result": 0.2, "unit": "µM"}, {"measurement": "Kd", "setting": "[10]", "result": 1.7, "unit": "µM"}]}
